We go through three compounds from patent publication US9506938B2, “Methods for measuring platelet reactivity of individuals treated with drug eluting stents” (ACCUMETRICS, INC., priority 2007, dated 2016).

In experiment [1] the test system is ADP-induced human platelet aggregation. Particulars: read-out: IC50 for the inhibition of ADP-induced human platelet aggregation; cited from earlier work.
The target in experiment [2] is T1, P2Y12 receptor (Homo sapiens, UniProt Q9H244). The settings on record: for percentage of inhibition: on clopidogrel at time of procedure; for percentage inhibition: clopidogrel naive, loaded with 600 mg. The source says:
The VerifyNow™ System instrument is a turbidimetric-based optical detection system that measures platelet induced aggregation as an increase in light transmittance. The system includes an analyzer, disposable cartridge and controls. The cartridge contains reagents based on microparticle agglutination technology. The quality control system includes an electronic control, two levels of assayed “wet” controls (WQC), an in-cartridge humidity sensor, an in-packaging temperature indicator, and a test for concurrence of two assay channels. […] For use in the present methods the test cartridge of the system contains a lyophilized preparation comprising particles with passively bound GPIIb/IIIa receptor ligand, a composition of ADP and PGE1, and buffer. The patient sample is usually citrated whole blood, which is automatically dispensed from the blood collection tube into the cartridge by the analyzer, with no blood handling required by the user. The interaction is monitored by the infrared absorbency characteristics of the particles. As the particles interact with the platelets, the agglutination of the particles is measured through the optical system of the VerifyNow™ analyzer. The agglutination is detected as an increase in the transmission of infrared light through the sample. The reaction kinetics are analyzed and translated into “P2Y12 Response Units”, PRU.
Whole blood was obtained from the side port of the arterial sheath prior to anticoagulant or anti-thrombin therapy and by phlebotomy 12 hours post-PCI.
All patients received 325 mg uncoated aspirin the day of the procedure regardless of previous aspirin use. […] Either intra-procedural heparin (with a goal activated clotting time of >250 sec) or bivalirudin were administered during the procedure at operator discretion.
Patients were judged to be insulin resistant if their Homeostasis Model Assessment index, calculated as: [fasting insulin (μU/mL)]*[fasting glucose (mg/dl)]/405, was >3.0 or if they had diabetes requiring medication.

Another experiment relates to platelet aggregation. The settings on record: Muller et al. 2003; cited from earlier work.
The test system of experiment [3] is patients undergoing PCI with DES. On the procedure: Interventional strategy was at the discretion of the operator. Either intra-procedural unfractionated heparin (with a goal-activated clotting time>250 s) or bivalirudin was used during the procedure. All patients received SES, and they received aspirin 325 mg on the day of the procedure regardless of previous aspirin use.
“Technical success” was defined as a final diameter stenosis ≦30% and thrombolysis in myocardial infarction (TIMI) flow grade 3. Clinical endpoints measured were cardiovascular (CV) death, non-fatal myocardial infarction (MI), and stent thrombosis. “MI over follow-up” was defined as any typical rise and fall of cardiac biomarkers in the setting of clinical signs or symptoms consistent with cardiac ischaemia, following the American College of Cardiology definition (Cannon, et al., J. Am. Coll. Cardiol. (2001) 38:2114-2130). The Academic Research Consortium definitions were used for “stent thrombosis” (definite, probable, and possible) (Mauri, et al., N. Engl. J. Med. (2007) 356:1020-1029). “Subacute stent thrombosis” was defined as stent thrombosis occurring after discharge to 30 day follow-up, and late-stent thrombosis was defined as stent thrombosis occurring between 30 day and 6 month follow-ups.
The computer-based analysis program SPSS (Statistical Package for the Social Sciences, 12.0 for PC, SPSS Inc., Chicago, Ill., USA) was used for statistical calculations. […] Comparison of continuous variables was performed using Student's t-test. The χ^2 test was used to detect differences in categorical variables, and a Fisher's exact test was used when any expected cell count was <5 for a 2 by 2 table. The Kolmogorov-Smirnov test was used to test for normality. A receiver-operating characteristic (ROC) curve analysis was used to determine the ability of the VERIFYNOW™ P2Y12 assay to distinguish between patients with and without post-discharge events after PCI. The optimal cut-off point was calculated by determining the post-treatment PRU that provided the greatest sum of sensitivity and specificity. Bootstrap validation was performed using R software. Survival curves were generated using the Kaplan-Meier method, and the difference between curves was assessed by log-rank test. A P-value<0.05 was considered significant.

In experiment [4] the target is T1, P2Y12 receptor. In words: VerifyNow P2Y12 assay, post-treatment platelet reactivity (PRU) in patients with sirolimus-eluting stents (Example 3). Type of experiment: in vivo. Also noted: The patient sample is usually citrated whole blood; endogenous in cells; host or cells: platelets in citrated whole blood of patients. How it is done: Patients on clopidogrel therapy or who were clopidogrel naïve were eligible for inclusion. […] The assay contains […] and 22 nM prostaglandin E1 to reduce the activation contribution from ADP binding to P2Y1 receptors. […] With this assay, a higher PRU reflects greater ADP-mediated platelet reactivity. The mean coefficient of variation of test precision has been reported to be 3.2% in patients with coronary artery disease. Interventional strategy was at the discretion of the operator.

The mark [5] stands for this setting: after discharge, 6 month follow-up, all patients.
Where [6] appears, read: clopidogrel for minimum 3 months, high reactivity (n = 121).
The mark [7] stands for this setting: clopidogrel for minimum 3 months, lower reactivity (n = 252).
[8] abbreviates: clopidogrel for minimum 3 months, overall group (n = 373).
Where [9] appears, read: clopidogrel through 6 month follow-up, high reactivity (n = 108).
The mark [10] stands for this setting: clopidogrel through 6 month follow-up, lower reactivity (n = 258).
The mark [11] stands for this setting: clopidogrel through 6 month follow-up, overall group (n = 317).
Setting [12] is: patients with high post-treatment reactivity.
Where [13] appears, read: patients without high post-treatment reactivity.

“And” between values parts separate entries of the source, which are not always exact repeats. Equal entries are not always repeated. Where two headings read alike, the source gives them in different places.

T1 sequence (Q9H244 whole entry): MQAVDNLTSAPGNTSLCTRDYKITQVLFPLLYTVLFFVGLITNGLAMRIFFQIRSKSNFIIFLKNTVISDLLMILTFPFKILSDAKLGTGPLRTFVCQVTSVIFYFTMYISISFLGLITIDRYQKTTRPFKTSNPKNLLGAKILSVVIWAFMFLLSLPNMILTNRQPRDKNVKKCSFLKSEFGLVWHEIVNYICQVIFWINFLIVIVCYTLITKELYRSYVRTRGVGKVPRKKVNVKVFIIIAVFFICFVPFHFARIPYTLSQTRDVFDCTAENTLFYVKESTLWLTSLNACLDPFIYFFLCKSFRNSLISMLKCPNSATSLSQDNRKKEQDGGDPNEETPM

Turning to `CCCCC[C@H](O)/C=C/[C@H]1[C@H](O)CC(=O)[C@@H]1CCCCCCC(=O)O` [PGE1, prostaglandin E1], the IC50 in experiment [1] was approximately 40 nM.

`COC(=O)[C@H](c1ccccc1Cl)N1CCc2sccc2C1` [clopidogrel]: the percentage of inhibition on P2Y12 receptor [2] (Patient No. 1, acute thrombosis 80 minutes after PCI) is listed as 0%; on P2Y12 receptor [2] (Patient No. 2, sub-acute thrombosis 6 days following PCI) it was 0%. Moreover, the percentage inhibition at P2Y12 receptor [2] (Patient No. 3, sub-acute thrombosis 34 days following PCI) is 0%; on P2Y12 receptor [2] (Patient No. 4, sub-acute thrombosis 8 days following PCI), 44%. Besides, the “share of patients undergoing PCI with clopidogrel-induced platelet inhibition <10%” value on P2Y12 receptor [2] (point-of-care assay, N = 280) was “one quarter”. Moreover, the “patients receiving the drug who did not achieve the expected platelet aggregation inhibition” value in the experiment with platelet aggregation is “at least 10%”. Moreover, the “overall rate of late-stent thrombosis” value in experiment [3] (30 day to 6 month follow-up) is 0.8%. The “Non-fatal MI” value in experiment [3] (setting [5]) was 1.3%; in experiment [3] (setting [6]), 2 (1.7) n (%); in experiment [3] (setting [7]), 2 (0.8) n (%); in experiment [3] (setting [8]), 4 (1.1) n (%); in experiment [3] (setting [9]), 2 (1.9) n (%); in experiment [3] (setting [10]), 2 (1.0) n (%). The “Non-fatal MI” value in experiment [3] (setting [11]) was 4 (1.3) n (%). In addition, the “combined endpoint of CV death, non-fatal MI, or stent thrombosis” value in experiment [3] (setting [5]) was 2.6%. Further, in experiment [3] (setting [5]), the “episodes of stent thrombosis” value was determined as 1.6%. For the same compound, the Stent thrombosis was 5 (4.1) n (%) in experiment [3] (setting [6]); 0 n (%) in experiment [3] (setting [7]); 5 (1.3) n (%) in experiment [3] (setting [8]); 5 (4.6) n (%) in experiment [3] (setting [9]); 0 n (%) in experiment [3] (setting [10]); 5 (1.6) n (%) in experiment [3] (setting [11]). In experiment [3] (discharge to 30 day follow-up), the “overall rate of subacute stent thrombosis” value amounted to 0.8%. Further, the “rate of CV mortality” value in experiment [3] (setting [12]) stood at 2.8%; in experiment [3] (setting [13]), 0%. Also, the “rate of all-cause death, non-fatal MI, or stent thrombosis” value in experiment [3] (setting [12]) turned out to be 6.5%; in experiment [3] (setting [13]) it was 1.4%. In addition, the “rate of any stent thrombosis” value came to 4.6% in experiment [3] (setting [12]) and 0% in experiment [3] (setting [13]). For the same compound, the entries for the “rate of combined endpoint of CV death, non-fatal MI, or stent thrombosis” value in experiment [3] (setting [12]) and in experiment [3] (setting [13]) were 6.5% and 1.0%, respectively. The “rate of definite or probable stent thrombosis” value in experiment [3] (setting [12]) is on record as 2.8%; in experiment [3] (setting [13]) it was 0%. In addition, the “survival rate free from the combined endpoint of CV death, non-fatal MI, or stent thrombosis” value was 91.4% in experiment [3] (setting [12]) and 99.0% in experiment [3] (setting [13]). On P2Y12 receptor [4] (all patients, n = 380), the mean post-treatment reactivity worked out at 184±85 PRU. Besides, the post-treatment reactivity is listed as 183±94 PRU at P2Y12 receptor [4] (clopidogrel-naive patients, 12 h after 600 mg loading dose) and 186±73 PRU at P2Y12 receptor [4] (patients on previous clopidogrel therapy). Further, the “post-treatment reactivity of the patients who had stent thrombosis while taking antiplatelet therapy” value at P2Y12 receptor [4] (individual patients) is 283 PRU and 292 PRU and 236 PRU and 244 PRU and 271 PRU. In addition, the values for the platelet reactivity on P2Y12 receptor [4] (patients with adverse events) and at P2Y12 receptor [4] (patients without adverse events) were 242 PRU and 186 PRU, respectively.

For the compound bivalirudin, in the experiment with P2Y12 receptor [4] (patients receiving intra-procedural heparin or bivalirudin), the “post-treatment reactivity on clopidogrel by intra-procedural anticoagulant” value is 184±84 PRU.

The term IC50 denotes the concentration needed to halve the response being measured.
